The values below come from US20030068808A1, “Methods for generating antibiotic resistant microbes and novel antibiotics” (priority 2001, published 2003).

Holding throughout (format): cell-based
One experiment deals with BL21 cells. Kind of experiment: Half minimum inhibitory concentrations (MIC) on BL21 cells, titration analysis. Particulars: half minimum inhibitory concentration on BL21 cells.
In experiment [1] the test system is bacterial cells expressing the vector (pT7Ea). Kind of experiment: Overnight growth in antibiotic, vector control bacteria. Conditions: overnight at 37° C., 10^7 cells in 5 ml LB broth plus antibiotic at 0.5X MIC. Here is the method:
(§1) Titration analysis found the following amounts to be effective in inhibiting bacterial growth in the presence of various compounds.
(§2) The next day, cultures were analyzed for cell growth in the presence or absence of antibiotics.

Experiment [2] relates to bacterial cells expressing pT7PMS134/V5. Kind of experiment: Overnight growth in antibiotic, MMR defective bacteria expressing PMS2-134. Particulars: overnight at 37° C., 10^7 cells in 5 ml LB broth plus antibiotic at 0.5X MIC. How it is done:
as §1, §2

In the case of `CCn1cc(C(=O)O)c(=O)c2ccc(C)nc21` [Nalidixic Acid], in the experiment with BL21 cells, the “0.5X MIC” value came out at 7.10 µg/mL. Also, the “Cell # (pT7Ea)” value in experiment [1] was determined as 0. For the same molecule, the “Cell # (X10^9) (pT7PMS134V5)” value in experiment [2] is reported as 0.97 X10^9.

Regarding `CN[C@H](CC(C)C)C(=O)N[C@H]1C(=O)N[C@@H](CC(N)=O)C(=O)N[C@H]2C(=O)N[C@H]3C(=O)N[C@H](C(=O)N[C@H](C(=O)O)c4cc(O)cc(O)c4-c4cc3ccc4O)[C@H](O)c3ccc(c(Cl)c3)Oc3cc2cc(c3O[C@@H]2O[C@H](CO)[C@@H](O)[C@H](O)[C@H]2O[C@H]2C[C@](C)(N)[C@H](O)[C@H](C)O2)Oc2ccc(cc2Cl)[C@H]1O` [Vancomycin], in the experiment with BL21 cells, the “0.5X MIC” value turned out to be 250.0 µg/mL. Also, in experiment [1], the “Cell # (pT7Ea)” value is on record as 0.

Regarding `CC1COc2c(N3CCN(C)CC3)c(F)cc3c(=O)c(C(=O)O)cn1c23` (stereo not shown) [Ofloxacin], the “0.5X MIC” value with BL21 cells worked out at 0.13 µg/mL. In experiment [1], the “Cell # (pT7Ea)” value was 0. Moreover, the “Cell # (X10^9) (pT7PMS134V5)” value in experiment [2] is 1.20 X10^9.

As for `CCn1cc(C(=O)O)c(=O)c2cc(F)c(N3CCNCC3)cc21` [Norfloxacin], the “0.5X MIC” value with BL21 cells came out at 0.13 µg/mL. The “Cell # (pT7Ea)” value in experiment [1] came to 0. In addition, the “Cell # (X10^9) (pT7PMS134V5)” value in experiment [2] was 1.40 X10^9.

Consider `CN(C)[C@@H]1C(O)=C(C(N)=O)C(=O)[C@@]2(O)C(O)=C3C(=O)c4c(O)cccc4[C@@](C)(O)[C@H]3C[C@@H]12` [Tetracycline], for which the “Cell # (pT7Ea)” value in experiment [1] came out at 0. For the same molecule, the “Cell # (X10^9) (pT7PMS134V5)” value in experiment [2] was 1.10 X10^9.
